One block for each compound: values may come before it.
Target: T1, human KSP motor domain (Uniprot P52732, residues 1-387) (Homo sapiens, UniProt P52732)
T1 construct: human KSP motor domain (Uniprot P52732, residues 1-387); His6; made in house; host or cells: E. coli BL21 Star (DE3)
T1 sequence (P52732 1-387): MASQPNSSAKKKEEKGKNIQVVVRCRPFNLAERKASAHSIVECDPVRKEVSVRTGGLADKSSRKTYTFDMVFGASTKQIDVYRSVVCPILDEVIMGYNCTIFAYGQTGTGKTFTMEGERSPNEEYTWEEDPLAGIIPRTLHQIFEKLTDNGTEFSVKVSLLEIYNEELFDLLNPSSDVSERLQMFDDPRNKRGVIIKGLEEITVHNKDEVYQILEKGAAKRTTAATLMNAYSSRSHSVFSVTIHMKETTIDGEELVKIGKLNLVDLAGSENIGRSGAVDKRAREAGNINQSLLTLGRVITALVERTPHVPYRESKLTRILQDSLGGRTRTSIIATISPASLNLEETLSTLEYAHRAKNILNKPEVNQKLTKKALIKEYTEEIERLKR
Test: Inhibitory activity against kinesin spindle protein (microtubule-stimulated ATPase, quinaldine red Pi detection, absorbance at 525 nm)
Type: biochemical
Settings: 30 nM kinesin spindle protein, 1 mM ATP, 37° C., 20 min
Procedure: Each of the compounds represented by Structural Formulas (1) to (4) was measured for inhibitory activity against a kinesin spindle protein by the following method referring to the methods described in Elizabeth B. Cogan et al., Analytical Biochemistry, 1999, 271, pp. 29-35 and Keith W. Rickert et al., Archives of Biochemistry and Biophysics, 2008, 469, pp. 220-231.
The human KSP motor domain (Uniprot P52732, residues 1-387) was cloned into the pRSETa vector (product of Invitrogen Co., Ltd) and expressed in E. coli BL21 Star (DE3) (product of Invitrogen Co., Ltd) with His6 tag for purification.
Each of the compounds represented by Structural Formulas (1) to (4) was prepared in 100% by mass DMSO (dimethylsulfoxide) at 100-fold concentration (100×). Then, the resulting mixture was diluted with 1.00% by mass DMSO to each of 0.001 mM, 0.003 mM, 0.01 mM, 0.03 mM, 0.1 mM, 0.3 mM, 1 mM, 3 mM, 10 mM and 30 mM.
A reaction mixture having a formulation described in the following Table 1 was prepared. Specifically, 28.5 μL of water, 1 μL ([…]) of the above-purified kinesin spindle protein, 5 μL of a 10× reaction buffer (150 mM PIPES (1,4-piperazine ethanesulfonic acid) (pH 7.0), 10 mM magnesium chloride, 10 mM EGTA (glycol ether diamine tetraacetate)), 10 μL of 5× microtubules solution (330 μg/mL microtubules, 15 mM PIPES (pH 7.0), 1 mM magnesium chloride, 10 μM Taxol) and 0.5 μL of the above-prepared 100× compound (the compound represented by Structural Formula (1), (2), (3) or (4)) were mixed together to prepare 45 μL of a reaction mixture, which was incubated at 37° C. for 10 min. Then, 5 μL of a 100×ATP solution (10 mM ATP, 10 mM PIPES (pH 7.0)) was added to the reaction mixture to initiate the reaction. Immediately after that, the reaction mixture was incubated at 37° C. for 20 min. […]
After the reaction, 150 μL of Quench C buffer (the formulation of which is given below) was added the reaction mixture to terminate the reaction, followed by incubating at room temperature for 5 min. Then, the reaction mixture was measured for absorbance at 525 nm with a microplate reader (SpectraMax, product of Molecular Devices Co., Ltd.). […]
The kinesin spindle protein decomposes ATP into ADP and Pi (phosphoric acid). […] Thus, the amount of the formed Pi can be measured by measuring the absorbance at 525 nm. With the absorbance at 525 nm of the high control (the amount of the formed Pi) being 100, comparing the absorbance of the high control with absorbance of test groups to which the above compounds have been added can determine whether the activity of the kinesin spindle protein is inhibited.
That is, the inhibitory rate of the activity of the kinesin spindle protein can be calculated from the following calculation formula. […]

Inhibitory rate (%) (compound concentration 10 μM): 44.5%
SMILES: CCN(CC)C(=O)CN(Cc1ccccc1)c1ccc2c(c1F)C=CC2(C)C [Structural Formula (1)]

Inhibitory rate (%) (compound concentration 88 μM): 50%
SMILES: CCN(CC)C(=O)CN(Cc1ccccc1)c1ccc2c(c1F)CCC2=O [Structural Formula (2), 2-(benzyl(4-fluoro-1-oxo-2,3-dihydro-1H-inden-5-yl)amino)-N,N-diethylacetamide]

Inhibitory rate (%) (compound concentration 39 μM): 50%
SMILES: CCN(CC)C(=O)CN(Cc1ccccc1)c1ccc2c(c1)C=CC2C (stereo not shown) [Structural Formula (3)]

Inhibitory rate (%) (compound concentration 100 μM): 79.8%
SMILES: CC1C=Cc2cc(N(CC(=O)N(C)C)Cc3ccccc3)ccc21 (stereo not shown) [Structural Formula (4)]

— patent US9242928B2, “Compound, kinesin spindle protein inhibitor, and application thereof” (FUJITSU LIMITED, priority 2010, dated 2016)
